The subject of one assay is IL-4. Nature of the assay: Inhibition of cytokine production in PHA-activated PBLs (ELISA). Type of assay: cell-based. Conditions: human PBLs, 10 μg/ml PHA, 48 hours, supernatant ELISA. The procedure:
(§1) Briefly, human PBLs are collected from a subject and plated at 10^6 cells/ml in serum free lymphocyte growth medium, stimulated with 10 μg/ml phytohemagglutinin (PHA) in the presence or absence of the candidate peptide. The PBLs are incubated at 37° C. at 5% CO2 for 48 h, at which point the supernatants were collected. An ELISA is performed on the supernatants to detect a cytokine of interest (e.g., IL-1, TNF-α, IFN-γ) and the cells are incubated for another 72 h to measure proliferation (see, e.g., Sigusch et al., J. Periodontol. 69:1098, 1998).
(§2) Human peripheral blood lymphocytes (PBLs) were collected from a healthy adult […] and plated at 10^6 cells/ml in serum free lymphocyte growth media in a 96-well plate. The PBLs were stimulated with 10 μg/ml PHA in the presence or absence of test sample and incubated at 37° C. at 5% CO2 for 48 hours. Collected and pooled supernatants were stored at −20° C., then assayed with commercially available ELISA kits (Endogen and Biosource) and assayed for viability with LDH (Bochringer Mannheim). The cells remaining after supernatant removal were returned to the incubator and proliferation was determined at 72 hours by using AlamarBlue (Alamar Bioscience). Compounds were tested at 1, 10, 100 and 1000 μg/ml. The peptides were effective at inhibiting cytokine production and PBL proliferation (Table 4), which indicates these peptides can function as anti-inflammatory agents.
On the technique in general: In an ELISA, binding on a coated surface is turned into a signal by an enzyme label.

Another assay relates to IL-12. The description is as above. In kind it is cell-based. Conditions: human PBLs, 10 μg/ml PHA, 48 hours, supernatant ELISA. On the procedure: as §1, §2
The test system of the next assay is IL-6. Described as above. In kind it is cell-based. Conditions: human PBLs, 10 μg/ml PHA, 48 hours, supernatant ELISA. On the procedure:
as §1, §2

In the next assay the test system is IFNγ. The description is as above. Type of assay: cell-based. Conditions: human PBLs, 10 μg/ml PHA, 48 hours, supernatant ELISA. On the procedure:
as §1, §2

The next assay relates to IL-10. Described as above. Conditions: human PBLs, 10 μg/ml PHA, 48 hours, supernatant ELISA. In kind it is cell-based. The procedure:
as §1, §2

For a further assay, the system named is TNFα. Described as above. Conditions: human PBLs, 10 μg/ml PHA, 48 hours, supernatant ELISA. Type of assay: cell-based. On the procedure: as §1, §2
For another assay, the system named is IL-2. The description is as above. Type of assay: cell-based. Conditions: human PBLs, 10 μg/ml PHA, 48 hours, supernatant ELISA. On the procedure: as §1, §2
For another assay, the system named is IL-1α. Described as above. In kind it is cell-based. Conditions: human PBLs, 10 μg/ml PHA, 48 hours, supernatant ELISA. On the procedure:
as §1, §2

In another assay the test system is TPA-induced ear edema. Nature of the assay: TPA ear edema model. Conditions: topical 1.0%, formulated in 95% ethanol; ear biopsy weight six hours after TPA.
The test system of assay [1] is oxazolone contact hypersensitivity (ear inflammation). Nature of the assay: Oxazolone contact hypersensitivity model. Type of assay: in vivo, CD-1 mice. Conditions: Dosage of 0.1%, applied to ear one hour after oxazolone challenge, ear punch weight after 24 h, 70% EtOH/30% propylene glycol vehicle. The procedure:
Briefly, a 3.0% (w/v) solution of oxazolone in acetone/corn oil (5:1) is applied topically to the skin on the shaved abdomens of mice of approximately the same weight and approximately the same age on day 0. […] Twenty-four hours later a dermal biopsy punch of the treated ear is taken and weighed.
CD-1 mice are treated with 3% oxazolone (Sigma) (30 mg/ml) in corn oil:acetone on a shaved abdomen. All solutions are sonicated for 7 minutes. Five days later, the mice are challenged with a 2% oxazolone (20 mg/ml) in acetone on the left ear, with the right ear being left untreated (control). One hour after challenge, the candidate peptide in a 70% EtOH/30% propylene glycol formulation (vehicle) was applied to the left ear, with the right ear being left untreated. After 24 h, 7 mm ear punches are taken from each ear of the mice. The ear punches are placed on a scale and the difference between the treated and untreated ears were compared. The percent inhibition of inflammation was calculated by comparing the mean of each treated group to the control group. The positive control is hydrocortisone (a known anti-inflammatory agent). Most of the indolicidin peptides inhibited inflammation as well as hydrocortisone.

Ends that are not written are not given here.

For the substance “WRWWKPKWRWPKW-NH2 [Peptide 11J02CN, W R W W K P K W R W P K W]”, the “IC50 IL-4” value in the assay on IL-4 stood at 115 µg/mL. The “IC50 IL-12” value with IL-12 was 34 µg/mL. Further, the “IC50 IL-6” value in the assay on IL-6 stood at 510 µg/mL. Moreover, the “IC50 IFNγ” value in the assay with IFNγ is 45 µg/mL. Besides, the “IC50 IL-10” value in the assay on IL-10 was 23 µg/mL. For the same substance, the “IC50 TNFα” value in the assay on TNFα was found to be 34 µg/mL. Besides, in the assay on IL-2, the “IC50 IL-2” value was over 1000 µg/mL. For the same substance, the “IC50 IL-1α” value in the assay on IL-1α worked out at 7 µg/mL. Moreover, the “Topical Dose (% change vs. vehicle) 1.0%” value in the assay on TPA-induced ear edema was −44%. Further, in assay [1], the “% Inhibition of Inflammation” value was found to be 58.12%.
In the case of “WRWWKVAWRWVKW-NH2 [Peptide 11J30CN, W R W W K V A W R W V K W]”, in the assay on IL-4, the “IC50 IL-4” value worked out at 65 µg/mL. For the same substance, the “IC50 IL-12” value in the assay with IL-12 worked out at 26 µg/mL. In the assay with IL-6, the “IC50 IL-6” value was 4 µg/mL. Besides, the “IC50 IFNγ” value with IFNγ is 28 µg/mL. Also, in the assay on IL-10, the “IC50 IL-10” value came out at 33 µg/mL. Further, the “IC50 TNFα” value in the assay on TNFα stood at 36 µg/mL. The “IC50 IL-2” value in the assay on IL-2 is over 1000 µg/mL. In addition, the “IC50 IL-1α” value in the assay on IL-1α amounted to 25 µg/mL. The “Topical Dose (% change vs. vehicle) 1.0%” value in the assay on TPA-induced ear edema was −26%. Also, the “% Inhibition of Inflammation” value in assay [1] came out at 94.15%.
